According to article PMC6220203, “Cellular signaling and gene expression profiles evoked by a bivalent macrocyclic peptide that serves as an artificial MET receptor agonist” (Scientific Reports, 2018):

Test system: MET receptor / AKT in EHMES-1 cells
Assay: Western blot of MET and AKT phosphorylation with or without PHA665752
Format: cell-based, human
Conditions: PHA665752 100 nM, stimulated by 1 nM HGF or 120 nM aMD5-PEG11, 10 min
Method: EHMES-1 cells were seeded at 9 × 10^5 cells per well in 6-well plates and cultured overnight. To treat the cells with the MET receptor tyrosine kinase inhibitor, EHMES-1 cells were seeded at 3 × 10^5 cells per well in 24-well plates and cultured with or without 100 nM PHA665752 for 12 h. After serum starvation for 4 h, cells were stimulated with HGF or dimeric macrocycle peptide. After washing with ice-cold PBS, cells were lysed in 200 μl 1 × SDS-PAGE Laemmli sample buffer and treated with ultrasonification (Vibra-cell). Cell lysates were analyzed by SDS-PAGE with a 7.5% polyacrylamide gel and electroblotted onto a PVDF membrane. The membrane was treated with primary antibodies (1:1000), followed by HRP-conjugated secondary antibodies (Dako) (1:2000). Chemiluminescence was visualized and quantitated using ImmunoStar LD (Wako). Original blots are provided by supplementary info.

Cc1[nH]c(/C=C2\C(=O)Nc3ccc(S(=O)(=O)Cc4c(Cl)cccc4Cl)cc32)c(C)c1C(=O)N1CCC[C@@H]1CN1CCCC1 [PHA665752]
inhibition of MET receptor and AKT activation: almost completely blocked the activation of the MET receptor and AKT to basal levels
